Assay results taken from patent publication US10736897B2, “Compounds and methods of use thereof for treatment of cancer” (Araxes Pharma LLC, priority 2017, dated 2020).

Each molecule was assayed against T1, KRAS G12C 1-169, his-tagged protein, GDP-loaded (Homo sapiens, UniProt P01116, G12C) (assay: Biochemical assay: covalent modification of KRAS G12C measured by mass spectrometry (RapidFire/TOF or Q-Exactive)). Settings: Modification Activity; modification percentage from deconvoluted MS peak intensities; compound concentration and incubation time for Table 2 not stated.
T1 construct: KRAS G12C 1-169, his-tagged protein, GDP-loaded; His tag
Type: binding
Description: Test compounds are prepared as 10 mM stock solutions in DMSO (Fisher cat # BP-231-100). KRAS G12C 1-169, his-tagged protein, GDP-loaded is diluted to 2 μM or 0.5 μM in buffer (20 mM Hepes, 150 mM NaCl, 1 mM MgCl2). Compounds are tested for activity as follows:
Compounds are diluted to 50× final test concentration in DMSO in 96-well storage plates. Compound stock solutions are vortexed before use and observed carefully for any sign of precipitation. Dilutions are as follow: • For 100 μM final compound concentration, compounds are diluted to 5000 μM (5 μL 10 mM compound stock+5 μL DMSO and mixed well by pipetting. • For 30 μM final compound concentration, compounds are diluted to 1500 μM (3 μL 10 mM compound stock+17 μL DMSO) and mixed well by pipetting. • For 10 μM final compound concentration, compounds are diluted to 500 μM (2 μL 10 mM compound stock+38 μL DMSO) and mixed well by pipetting. 49 μL of the stock protein solution is added to each well of a 96-well PCR plate (Fisher cat #1423027). 1 μl of the diluted 50× compounds are added to appropriate wells in the PCR plate using 12-channel pipettor. Reactions are mixed carefully and thoroughly by pipetting up/down with a 200 μL multi-channel pipettor. The plate is sealed well with aluminum plate seal, and stored in drawer at room temperature for 10 minutes, 30 minutes, 2 hours or 24 hours. 5 μL of 2% formic acid (Fisher cat # A117) in de-ionized H2O is then added to each well followed by mixing with a pipette. The plate is then resealed with aluminum seal and stored on dry ice until analyzed as described below.
The above described assays are analyzed by mass spectrometry according to one of the following two procedures:
The MS instrument is set to positive polarity, 2 GHz resolution, and low mass (1700) mode and allowed to equilibrate for 30 minutes. The instrument is then calibrated, switched to acquisition mode and the appropriate method loaded.
After another 30 minute equilibration time, a blank batch (i.e., buffer) is run to ensure equipment is operating properly. The samples are thawed at 37° C. for 10 minutes, briefly centrifuged, and transfer to the bench top. Wells A1 and H12 are spiked with 1 μL 500 μM internal standard peptide, and the plates centrifuged at 2000×g for 5 minutes. The method is then run and masses of each individual well recorded.
The masses (for which integration data is desired) for each well are pasted into the platemap and exported from the analysis. Masses for the internal standards are exported as well. The data at 50 ppm is extracted for the +19 charge state, and identity of well A1 is assigned using the internal standard spike and integrated. Peak data is exported as a TOF list and the above steps are repeated individually, for the +20, 21, 22, 23, 24, and 25 charge states.
The masses and peak intensities of KRAS G12C protein species are measured using a Dionex RSLCnano system (Thermo Scientific) connected to a Q Exactive Plus mass spectrometer (Thermo Scientific).
[…] of sample is each loaded onto a Aeris™ 3.6 μm WIDEPORE C4 200 Å, LC Column 50×2.1 mm column maintained at 40° C. at a flow rate of 600 μL/min with […] (0.1% formic acid in acetonitrile). The liquid chromatography conditions are 20% solvent B for 1 minute, 20% to 60% solvent B for 1.5 minutes, 60% to 90% solvent for 0.5 minute, 90% solvent B for 0.2 minute, 90% to 20% solvent B for 0.2 minute, and then equilibrated for 1.6 minute before the following sample injection. The flow rate is maintained at 600 μL/min throughout the sample analysis.
The mass spectrometer is operated in profile mode at a resolution of 17500, 5 microscans, using 50 msec max injection time and an AGC target of 1×10^6, and a full mass range from 800-1850 m/z is recorded. The HCD trapping gas is optimized for maximum sensitivity for intact proteins. […]

Row | SMILES | Binding %
1 | C=CC(=O)N1CCN(c2c(C#N)cnc3c(F)c(-c4c(C)ccc5[nH]nc(C)c45)c(Cl)cc23)CC1CC#N (stereo not shown) [Compound 30, 4-(4-acryloyl-3-(cyanomethyl)piperazin-1-yl)-6-chloro-7-(3,5-dimethyl-1H-indazol-4-yl)-8-fluoroquinoline-3-carbonitrile] | +++ (+++ indicates binding activity greater than 85%)
2 | C=CC(=O)N1CCN(c2c(C#N)cnc3c(F)c(-c4c(C)ccc5cnn(C6CC6)c45)c(Cl)cc23)C[C@H]1C [Compound 26, 4-((R)-4-acryloyl-3-methylpiperazin-1-yl)-6-chloro-7-(1-cyclopropyl-6-methyl-1H-indazol-7-yl)-8-fluoroquinoline-3-carbonitrile] | +++ (+++ indicates binding activity greater than 85%)
3 | C=CC(=O)N1CCN(c2cc(C(F)(F)F)nc3c(F)c(-c4c(C)ccc5cnn(C)c45)c(Cl)cc23)CC1 [Compound 23, 1-(4-(6-chlroo-7-(1,6-dimethyl-1H-indazol-7-yl)-8-fluoro-2-(trifluoromethyl)quino-lin-4-yl)piperazin-1-yl)prop-2-en-1-one] | + (+ indicates binding activity greater than 0% and up to 50%)
4 | C=CC(=O)N1C[C@H](C)N(c2ncnc3c(F)c(-c4c(C)ccc5cnn(C)c45)c(Cl)cc23)C[C@H]1C (atropisomer, axis not shown) [Compound 8, 1-((2R,5S)-4-((R)-6-chloro-7-(1,6-dimethyl-1H-indazol-7-yl)-8-fluoroquinazolin-4-yl)-2,5-dimethylpiperazin-1-yl)prop-2-en-1-one] | +++ (+++ indicates binding activity greater than 85%)
5 | C=CC(=O)N1CCN(c2cnnc3cc(-c4c(C)ccc5cnn(C6CC6)c45)c(Cl)cc23)CC1 [Compound 16, 1-(4-(6-chloro-7-(1-cyclopropyl-6-methyl-1H-indazol-7-yl)cinnolin-4-yl)piperazin-1-yl)prop-2-en-1-one] | + (+ indicates binding activity greater than 0% and up to 50%)
6 | C=CC(=O)N1CCN(c2c(C#N)cnc3c(F)c(-c4c(C)ccc5[nH]nc(C6CC6)c45)c(Cl)cc23)CC1 [Compound 13, 4-(4-acryloylpiperazin-1-yl)-6-chloro-7-(3-cyclopropyl-5-methyl-1H-indazol-4-yl)-8-fluoroquinoline-3-carbonitrile] | +++ (+++ indicates binding activity greater than 85%)
7 | C=CC(=O)N1C[C@H](C)N(c2ncnc3c(F)c(-c4c(C)ccc5[nH]nc(N)c45)c(Cl)cc23)C[C@H]1C [Compound 5, 1-((2R,5S)-4-((R)-7-(3-amino-5-methyl-1H-indazol-4-yl)-6-chloro-8-fluoroquinazolin-4-yl)-2,5-dimethylpiperazin-1-yl)prop-2-en-1-one] | ++ (++ indicates binding activity from 50 to 85%)
8 | C=CC(=O)N1C[C@H](C)N(c2ncnc3c(F)c(-c4c(C)ccc5cnn(C)c45)c(Cl)cc23)C[C@H]1C [Compound 7, 1-((2R,5S)-4-((S)-6-chloro-7-(1,6-dimethyl-1H-indazol-7-yl)-8-fluoroquinazolin-4-yl)-2,5-dimethylpiperazin-1-yl)prop-2-en-1-one] | + (+ indicates binding activity greater than 0% and up to 50%)
9 | C=CC(=O)N1C[C@H](C)N(c2ncnc3c(F)c(-c4c(C)ccc5[nH]nc(N)c45)c(Cl)cc23)C[C@H]1C [Compound 6, 1-((2R,5S)-4-((S)-7-(3-amino-5-methyl-1H-indazol-4-yl)-6-chloro-8-fluoroquinazolin-4-yl)-2,5-dimethylpiperazin-1-yl)prop-2-en-1-one] | + (+ indicates binding activity greater than 0% and up to 50%)
10 | C=CC(=O)N1CCN(c2c(C#N)c(OCCCN(C)C)nc3c(F)c(-c4c(C)ccc5cnn(C)c45)c(Cl)cc23)CC1 [Compound 27, 4-(4-acryloylpiperazin-1-yl)-6-chloro-7-(1,6-dimethyl-1H-indazol-7-yl)-2-(3-(dimethylamino)pro-poxy)-8-fluoroquinoline-3-carbonitrile] | +++ (+++ indicates binding activity greater than 85%)
11 | C=CC(=O)N1CCN(c2cnnc3cc(-c4c(C)ccc5cnn(C)c45)c(Cl)cc23)CC1 [Compound 15, 1-(4-(6-chloro-7-(1,6-dimethyl-1H-indazol-7-yl)cinnolin-4-yl)piperazin-1-yl)prop-2-en-1-one] | + (+ indicates binding activity greater than 0% and up to 50%)
12 | C=CC(=O)N1[C@H](C)CN(c2ncnc3c(F)c(-c4c(C)ccc5cnn(C)c45)c(Cl)cc23)C[C@@H]1C (atropisomer, axis not shown) [Compound 9, 1-((2S,6R)-4-((S)-6-chloro-7-(1,6-dimethyl-1H-indazol-7-yl)-8-fluoroquinazolin-4-yl)-2,6-dimethylpiperazin-1-yl)prop-2-en-1-one] | + (+ indicates binding activity greater than 0% and up to 50%)
13 | C=CC(=O)N1CCN(c2c(C#N)cnc3c(F)c(-c4c(C)ccc5cnn(C)c45)c(Cl)cc23)CC1 [Compound 11, 4-(4-acryloylpiperazin-1-yl)-6-chloro-7-(1,6-dimethyl-1H-indazol-7-yl)-8-fluoroquinoline-3-carbonitrile] | +++ (+++ indicates binding activity greater than 85%)
14 | C=CC(=O)N1CCN(c2cc(C#N)nc3c(F)c(-c4c(C)ccc5cnn(C)c45)c(Cl)cc23)CC1 [Compound 28, 4-(4-acryloylpiperazin-1-yl)-6-chloro-7-(1,6-dimethyl-1H-indazol-7-yl)-8-fluoroquinoline-2-carbonitrile] | +++ (+++ indicates binding activity greater than 85%)
15 | C=CC(=O)N1CCN(c2c(C#N)cnc3c(F)c(-c4c(C)ccc5cnn(C)c45)c(Cl)cc23)C[C@H]1C [Compound 24, 4-((R)-4-acryloyl-3-methylpiperazin-1-yl)-6-chloro-7-(1,6-dimethyl-1H-indazol-7-yl)-8-fluoroquinoline-3-carbonitrile] | +++ (+++ indicates binding activity greater than 85%)
16 | C=CC(=O)N1C[C@H](C)N(c2c(C#N)cnc3c(F)c(-c4c(C)ccc5[nH]nc(C)c45)c(Cl)cc23)C[C@H]1C [Compound 21, 4-((2S,5R)-4-acryloyl-2,5-dimethylpiperazin-1-yl)-6-chloro-7-(3,5-dimethyl-1H-indazol-4-yl)-8-fluoroquinoline-3-carbonitrile] | + (+ indicates binding activity greater than 0% and up to 50%)
17 | C=CC(=O)N1CCN(c2cnnc3cc(-c4c(C)ccc5[nH]nc(C6CC6)c45)c(Cl)cc23)CC1 [Compound 18, 1-(4-(6-chloro-7-(3-cyclopropyl-5-methyl-1H-indazol-4-yl)cinnolin-4-yl)piperazin-1-yl)prop-2-en-1-one] | + (+ indicates binding activity greater than 0% and up to 50%)
18 | C=CC(=O)N1CCN(c2cc(C(F)(F)F)nc3c(F)c(-c4c(C)ccc5[nH]nc(C)c45)c(Cl)cc23)CC1 [Compound 25, 1-(4-(6-chloro-7-(3,5-dimethyl-1H-indazol-4-yl)-8-fluoro-2-(trifluoromethyl)quino-lin-4-yl)piperazin-1-yl)prop-2-en-1-one] | + (+ indicates binding activity greater than 0% and up to 50%)
19 | C=CC(=O)N1CCN(c2c(C#N)cnc3c(F)c(-c4c(C)ccc5[nH]nc(C)c45)c(Cl)cc23)CC1 [Compound 12, 4-(4-acryloylpiperazin-1-yl)-6-chloro-7-(3,5-dimethyl-1H-indazol-4-yl)-8-fluoroquinoline-3-carbonitrile] | ++ (++ indicates binding activity from 50 to 85%)
